Results reported in the NIST ThermoML archive (doi:10.1021/je800964k).

Details: Liquid, Hot wire method

COC [dimethyl ether]
Details	thermal conductivity [W/m/K]
234.04 K, 5100 kPa	0.1561
234.2 K, 600 kPa	0.1534
234.29 K, 600 kPa	0.153
234.33 K, 10000 kPa	0.16
234.43 K, 29800 kPa	0.1704
234.44 K, 30000 kPa	0.1709
234.58 K, 600 kPa	0.1538
234.66 K, 5300 kPa	0.1568
234.7 K, 20200 kPa	0.1655
234.71 K, 10400 kPa	0.1605
234.72 K, 5300 kPa	0.1562
234.79 K, 30100 kPa	0.1703
235 K, 20100 kPa	0.1654
235.27 K, 20200 kPa	0.1655
235.32 K, 10700 kPa	0.1598
253.99 K, 10200 kPa	0.1528
254.02 K, 600 kPa	0.1422
254.11 K, 20400 kPa	0.1582
254.12 K, 30200 kPa	0.1633
254.16 K, 600 kPa	0.1427
254.2 K, 20100 kPa	0.1579
254.22 K, 10400 kPa	0.1529
254.34 K, 30300 kPa	0.1643
254.37 K, 20100 kPa	0.1583
254.42 K, 600 kPa	0.1427
254.42 K, 5100 kPa	0.1467
254.81 K, 10100 kPa	0.1522
254.88 K, 5100 kPa	0.1466
255.08 K, 5000 kPa	0.1471
257.35 K, 29900 kPa	0.164
273.93 K, 5000 kPa	0.1396
274.08 K, 5100 kPa	0.1396
274.48 K, 5000 kPa	0.1404
274.56 K, 29800 kPa	0.1585
274.57 K, 30400 kPa	0.1579
274.6 K, 20000 kPa	0.1523
274.9 K, 10500 kPa	0.1456
274.9 K, 20300 kPa	0.1522
275.12 K, 20300 kPa	0.1523
275.22 K, 10200 kPa	0.1452
275.3 K, 30600 kPa	0.1582
275.31 K, 700 kPa	0.1342
275.74 K, 700 kPa	0.1343
276.02 K, 10500 kPa	0.1459
276.44 K, 700 kPa	0.1347
293.79 K, 5100 kPa	0.1305
293.8 K, 800 kPa	0.1249
294.15 K, 800 kPa	0.1252
294.16 K, 10000 kPa	0.1362
294.22 K, 10200 kPa	0.1364
294.3 K, 29800 kPa	0.1495
294.45 K, 800 kPa	0.1248
294.45 K, 4900 kPa	0.1305
294.59 K, 29900 kPa	0.1486
294.68 K, 20600 kPa	0.1417
294.84 K, 5200 kPa	0.1307
295.13 K, 20300 kPa	0.1417
295.22 K, 10000 kPa	0.1356
296.32 K, 20200 kPa	0.1415
314.01 K, 5100 kPa	0.1191
314.06 K, 1000 kPa	0.1143
314.11 K, 5200 kPa	0.1189
314.39 K, 1000 kPa	0.1145
314.39 K, 5100 kPa	0.1195
314.43 K, 10200 kPa	0.1242
314.6 K, 30100 kPa	0.1385
314.66 K, 1000 kPa	0.1137
314.81 K, 10200 kPa	0.1241
314.88 K, 30000 kPa	0.1382
315.01 K, 20400 kPa	0.1313
315.06 K, 10100 kPa	0.1242
315.07 K, 20100 kPa	0.1318
315.37 K, 30400 kPa	0.1384
315.55 K, 20000 kPa	0.1318
333.73 K, 1500 kPa	0.1079
333.92 K, 5200 kPa	0.1113
334.03 K, 1500 kPa	0.1075
334.09 K, 30000 kPa	0.1283
334.31 K, 20200 kPa	0.1229
334.38 K, 30100 kPa	0.1287
334.47 K, 1500 kPa	0.1078
334.55 K, 5100 kPa	0.1108
334.7 K, 10200 kPa	0.1156
334.79 K, 20200 kPa	0.1224
334.85 K, 5200 kPa	0.1116
334.9 K, 30200 kPa	0.1288
334.91 K, 10200 kPa	0.1154
335.09 K, 30400 kPa	0.1294
335.29 K, 20100 kPa	0.1228
335.37 K, 10100 kPa	0.1151
335.72 K, 20000 kPa	0.1223
335.76 K, 10300 kPa	0.1146
353.73 K, 10300 kPa	0.1059
353.93 K, 30500 kPa	0.1206
353.97 K, 30100 kPa	0.1208
354.06 K, 10200 kPa	0.1053
354.1 K, 20400 kPa	0.1145
354.15 K, 5800 kPa	0.0998
354.21 K, 2300 kPa	0.0973
354.29 K, 5300 kPa	0.1005
354.45 K, 2300 kPa	0.097
354.59 K, 30100 kPa	0.1208
354.86 K, 2300 kPa	0.0971
354.97 K, 5200 kPa	0.1
355.08 K, 20000 kPa	0.1141
355.18 K, 2300 kPa	0.0971
355.36 K, 20100 kPa	0.1142
355.46 K, 5200 kPa	0.1012
374.25 K, 10700 kPa	0.0988
374.25 K, 20500 kPa	0.1071
374.3 K, 30400 kPa	0.1129
374.62 K, 30300 kPa	0.1133
374.81 K, 29900 kPa	0.1135
374.85 K, 3300 kPa	0.0871
374.85 K, 5100 kPa	0.0908
374.91 K, 5000 kPa	0.0908
375.13 K, 3300 kPa	0.0869
375.27 K, 5000 kPa	0.0911
375.38 K, 3300 kPa	0.0867
375.68 K, 20200 kPa	0.1065
376.02 K, 20000 kPa	0.1065
376.38 K, 10600 kPa	0.0976
